Two compounds from patent US12403077B2, “Use of a new composition for preventing or slowing the appearance of signs of inflammation” (SOCIETE D'EXPLOITATION DE PRODUITS POUR LES INDUSTRIES …, priority 2018, dated 2025) can be followed below.

For one assay, the system named is lipase. Description: Anti-lipase activity in tubo (1,2-diglyceride to glycerol, absorbance 570 nm). The following applies: positive reference, concentration not given. The class given is biochemical. The protocol: The subject of the method is to study the capacity of a composition to provoke and regulate the activity of the lipase enzyme by an in tubo method, said enzyme having an inflammatory action. Lipase has the capacity to convert the colorless 1,2-diglyceride into glycerol, which is pink in color. The samples for the evaluation test are placed in tubo in the presence of lipase and of 1,2-diglyceride, and the absorbance of the samples is measured in a spectrophotometer at a wavelength of 570 nm at the end of their preparation, then after 60 minutes of incubation at 37° C. under the same spectral conditions. By virtue of a range of glycerol, the lipase activity of the samples can be calculated, as can the percentage inhibition, by the following formulas: Lipase activity=(amount of glycerol formed between 0 and 60 minutes)/(60 minutes×sample volume) Percentage inhibition=100×[(lipase activity of control group)−(lipase activity of test product)]/(lipase activity of control group) Statistical Elements: The values are expressed as means+/−standard deviation. The statistical analysis of the results was conducted using a two-sided Student test with a significance threshold set at 5%, by pairwise comparison of the series of values. […]

In a further assay the test system is TLR-3. As to the kind of experiment: IL-8 and hBD2 production by normal human keratinocytes, TLR-3 activated by poly(I:C) (ELISA). The class given is cell-based. The note with it: cells stimulated with poly(I:C), 100 nM. The protocol: The anti-inflammatory effect of compositions was evaluated on normal human keratinocytes under conditions imitating an imbalance in the cutaneous microbiota through the activation of 3 TLRs (Toll-Like Receptors). These receptors are activated by recognition of specific elements of the microbes, and their function is to alert the immune system in order to activate the body's defenses. In this model, the imbalance in the microbiota was modeled with various stimuli imitating a skin infection: • TLR-5 was activated by flagellin (the main protein of the flagellar filament, present in virtually all bacteria) • TLR-2 was activated by zymosan (glycoprotein complex extracted from yeast membranes) • TLR-3 was activated by poly(I:C) (a synthetic analog of the double-stranded RNA found in viruses)
The effect of the compositions tested was evaluated on the basis of their capacity to modulate the production of IL-8 and of hBD2 induced by these stimuli, using specific “ELISA” kits. The concentration of total proteins was also evaluated, in order to standardize the production of cytokin (IL-8) and of antimicrobial peptide (hBD2).
The values are expressed as means+/−sem [standard error of the mean=standard deviation/root (number of values)].
For each treatment, a calculation was made of: % protection=100×[mean (cells+treatment)−mean (stimulated cells)]/[mean (unstimulated cells)−mean (stimulated cells)] The statistical analysis of the results was conducted using a two-sided Student test with a significance threshold set at 5%, by pairwise comparison of the series of values. A difference between the efficacy of two products is considered to be: • significant if p<0.05; • “at the limit of significance” if 0.05≤p<0.1; • and not significant if p>0.1. B.2.2. Results Obtained In the three tables which follow: For stimulated cells: *** p<0.001 vs unstimulated cells. For treated and stimulated cells: *** p<0.001 vs stimulated cells. The results obtained following activation of TLR-5 by flagellin, the results are set out in table 10 below: […]

The structures appear in SMILES notation. Marks after values point to notes of the source that are not given here.

For `O=C1O[C@H]([C@@H](O)CO)C(O)=C1O` [Vitamin C], the Lipase activity with lipase (60 minutes at 37° C., mean +/- standard deviation) is reported as 2.11 +/− 0.01 mU/mL. Moreover, the “% inhibition of the lipase” value in the assay with lipase (vs control) was 50*** %.
In the assay with TLR-3, `CO/C1=C\C(C)=C\[C@@H](C)[C@@H](O)[C@@H](C)C/C(C)=C/C=C/[C@H](OC)[C@@H]([C@@H](C)[C@@H](O)[C@H](C)[C@@]2(O)C[C@@H](O)[C@H](C)[C@@H](C(C)C)O2)OC1=O` [bafilomycin] yielded an IL-8 of less than 19 pg/mg proteins, an IL-8 % protection of 100%*** and a hBD2 % protection of 100%***. Moreover, in the assay with TLR-3 (mean +/- sem), the hBD2 is reported as 17 +/− 2 pg/mg proteins.
